Experiments:
[1] = tested on: hSC-CMs (Cor.4U Cardiomyocytes); test: Apoptosis assay (CellEvent Caspase-3/7 Green, IncuCyte ZOOM kinetics over 24 h); type: cell-based, human; conditions: for activity at 0.03 µM / activity at 0.1 µM / activity at 0.3 µM / activity at 1 µM: Homo sapiens, Cardiomyocyte, normalized to time-matched vehicle control; for Apoptosis (caspase-3/7 activation), result in words: monitored over 24 h
Outline: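 Apoptosis was followed kinetically with a caspase-3/7 green fluorescent probe, imaging phase contrast and fluorescence every 2 h through 24 h compound exposure, after a 2 h baseline. Human stem cell-derived cardiomyocytes had been pre-cultured 4 days at 37 °C. Green object area per well was expressed relative to time-matched vehicle, with ≥3 replicates per concentration.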

[2] = tested on: hSC-CMs (Cor.4U Cardiomyocytes); test: ATP assay (CellTiter-Glo Luminescent Cell Viability Assay); type: cell-based, human; conditions: for viability at 0.03 µM / viability at 0.1 µM / viability at 0.3 µM / viability at 1 µM: Homo sapiens, Cardiomyocyte, normalized to time-matched DMSO control; for Effect on ATP level, in words: hSC-CMs, up to the highest test concentrations
Outline: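 Human stem-cell-derived Cor.4U cardiomyocytes (25,000–30,000/well), cultured 4 days at 37 °C, switched to serum-free BMCC medium 12 h before dosing. Cellular ATP quantified by CellTiter-Glo luminescence and normalized to time-matched DMSO controls; at least three replicates per concentration.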

[3] = tested on: hSC-CMs (Cor.4U Cardiomyocytes); test: CardioExcyte 96 impedance and EFP recording (beating rate, base impedance); type: cell-based, human; conditions: for activity at 0.03 µM / activity at 0.1 µM / activity at 0.3 µM / activity at 1 µM: Homo sapiens, Cardiomyocyte, vs baseline before drug (taken as 100%); for Effect on cardiomyocyte function in 3D surface plots (beating rate, base impedance, ATP), in words / Effect on hSC-CMs function (base impedance and beating rate), in words: hSC-CMs, 2 and 24 h
Outline: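 hSC-CM monolayers (Cor.4U), cultured 4 days at 37 °C, 5% CO2, recorded spontaneously beating; impedance sampled at 1 kHz, EFP at 10 kHz. Beating rate taken as reciprocal of inter-spike interval in EFP. Each test concentration expressed as fractional change versus pre-drug baseline (100%).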

GSK-3α = conditions: ref [46] (CHIR99021), [47] (SB 216763); read-out: Target IC50 GSK-3α; cited from earlier work

Compound | activity at 0.03 µM ([1]; 2h) | activity at 0.03 µM ([1]; 24h) | activity at 0.1 µM ([1]; 2h) | activity at 0.1 µM ([1]; 24h) | activity at 0.3 µM ([1]; 2h) | activity at 0.3 µM ([1]; 24h) | activity at 1 µM ([1]; 2h) | activity at 1 µM ([1]; 24h) | Apoptosis (caspase-3/7 activation), result in words ([1]; hSC-CMs) | viability at 0.03 µM ([2]; 2h) | viability at 0.03 µM ([2]; 24h) | viability at 0.1 µM ([2]; 2h) | viability at 0.1 µM ([2]; 24h) | viability at 0.3 µM ([2]; 2h) | viability at 0.3 µM ([2]; 24h) | viability at 1 µM ([2]; 2h) | viability at 1 µM ([2]; 24h) | Effect on ATP level, in words [2] | activity at 0.03 µM ([3]; 2h, read-out: BR) | activity at 0.03 µM ([3]; 2h, read-out: Base Imp) | further results
Cc1c[nH]c(-c2cnc(NCCNc3ccc(C#N)cn3)nc2-c2ccc(Cl)cc2Cl)n1 [CHIR99021] | 160% | 109% | 143% | 79% | 132% | 80% | 122% | 85% | did not have any functionally-relevant effect | 87% | 97% | 87% | 95% | 93% | 92% | 99% | 97% | did not impact the ATP level | 99% | 96% | activity at 0.03 µM ([3]; 24h, read-out: BR): 95%; activity at 0.03 µM ([3]; 24h, read-out: Base Imp): 97%; activity at 0.1 µM ([3]; 2h, read-out: BR): 93%; activity at 0.1 µM ([3]; 2h, read-out: Base Imp): 93%; activity at 0.1 µM ([3]; 24h, read-out: BR): 92%; activity at 0.1 µM ([3]; 24h, read-out: Base Imp): 97%; activity at 0.3 µM ([3]; 2h, read-out: BR): 90%; activity at 0.3 µM ([3]; 2h, read-out: Base Imp): 94%; activity at 0.3 µM ([3]; 24h, read-out: BR): 92%; activity at 0.3 µM ([3]; 24h, read-out: Base Imp): 91%; activity at 1 µM ([3]; 2h, read-out: BR): 84%; activity at 1 µM ([3]; 2h, read-out: Base Imp): 90%; activity at 1 µM ([3]; 24h, read-out: BR): 93%; activity at 1 µM ([3]; 24h, read-out: Base Imp): 88%; Effect on cardiomyocyte function in 3D surface plots (beating rate, base impedance, ATP), in words [3]: minimal functional effect; Effect on hSC-CMs function (base impedance and beating rate), in words [3]: did not produce functionally relevant changes; IC50 (GSK-3α): 10 nM
Cn1cc(C2=C(c3ccc(Cl)cc3Cl)C(=O)NC2=O)c2ccccc21 [SB 216763] | 143% | 92% | 174% | 132% | 256% | 265% | 326% | 352% | quickly induced a concentration-dependent caspase−3/7 activation | 88% | 98% | 88% | 99% | 91% | 95% | 97% | 96% | did not impact the ATP level | 98% | 109% | Time to plateau of caspase-3/7 activation ([1]; hSC-CMs): within the first hour; activity at 0.03 µM ([3]; 24h, read-out: BR): 91%; activity at 0.03 µM ([3]; 24h, read-out: Base Imp): 108%; activity at 0.1 µM ([3]; 2h, read-out: BR): 88%; activity at 0.1 µM ([3]; 2h, read-out: Base Imp): 107%; activity at 0.1 µM ([3]; 24h, read-out: BR): 94%; activity at 0.1 µM ([3]; 24h, read-out: Base Imp): 107%; activity at 0.3 µM ([3]; 2h, read-out: BR): 97%; activity at 0.3 µM ([3]; 2h, read-out: Base Imp): 106%; activity at 0.3 µM ([3]; 24h, read-out: BR): 94%; activity at 0.3 µM ([3]; 24h, read-out: Base Imp): 102%; activity at 1 µM ([3]; 2h, read-out: BR): 85%; activity at 1 µM ([3]; 2h, read-out: Base Imp): 102%; activity at 1 µM ([3]; 24h, read-out: BR): 93%; activity at 1 µM ([3]; 24h, read-out: Base Imp): 105%; Effect on cardiomyocyte function in 3D surface plots (beating rate, base impedance, ATP), in words [3]: minimal functional effect; Effect on hSC-CMs function (base impedance and beating rate), in words [3]: did not produce functionally relevant changes; IC50 (GSK-3α): 34 nM
